Reference: patent publication US20200172483A1, “HETEROCYCLIC SMALL MOLECULE MODULATORS OF HUMAN STING” (Curadev Pharma Limited, priority 2017, published 2020)
Read-outs that look alike come from different tables or passages of the source.

Tests used:
[1] = biological target: T1, WT/R232 STING protein (Homo sapiens, UniProt Q86WV6, H232R); experiment: Luciferase reporter assay in HEK293T-hSTING-Luciferase cells (R232); format: cell-based; settings: 20 hr stimulation, EC50 range
T1 construct: host or cells: HEK293T
Procedure, shortened: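 Readout is fold-induction over baseline of secreted luciferase, measured by luminescence after 20 hr compound stimulation. Cells: clonally selected HEK293T stably carrying hSTING (R232) and a luciferase reporter under five tandem ISREs fused to an ISG54 minimal promoter.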

[2] = system: IRF pathway; experiment: Reporter gene expression assay for IRF axis in THP1-Dual cells (secreted Lucia luciferase); format: cell-based, human; settings: 20 hr stimulation, QUANTI-Luc, EC50 range, read-out: THP-IRF activity
Procedure, shortened: (§1)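 THP1-Dual cells (THP-1 monocytes with inducible NF-κB-SEAP and IRF-Lucia reporters; 5×10^5 cells) were stimulated with compounds for 20 hr. Secreted SEAP (QUANTI-Blue) and Lucia luciferase (QUANTI-Luc) were then measured in the supernatant. EC50 values are reported as ranges.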

[3] = biological target: T2, hSTING (HAQ) (Homo sapiens, UniProt Q86WV6, G230A/H232R/R293Q/R71H); experiment: Luciferase reporter assay in HEK293T-hSTING-Luciferase cells (HAQ polymorph); format: cell-based; settings: EC50 range
T2 construct: host or cells: HEK293T
Procedure, shortened: (§2)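 Clonal HEK293T lines stably expressing the hSTING variant (H232 or HAQ) plus an ISRE/ISG54-driven secreted luciferase reporter were stimulated with compounds for 20 hr. Supernatant luciferase measured by luminescence (Quanti-Luc).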

[4] = biological target: T3, hSTING (H232) (Homo sapiens, UniProt Q86WV6); experiment: Luciferase reporter assay in HEK293T-hSTING-Luciferase cells (H232/REF polymorph); format: cell-based; settings: EC50 range
T3 construct: host or cells: HEK293T
Procedure, shortened: as §2

[5] = system: NF-κB pathway; experiment: Reporter gene expression assay for NFκB axis in THP1-Dual cells (secreted SEAP); format: cell-based, human; settings: 20 hr stimulation, QUANTI-Blue SEAP, EC50 range, read-out: THP-NFKB activity
Procedure, shortened: as §1

T3 sequence (Q86WV6 whole entry): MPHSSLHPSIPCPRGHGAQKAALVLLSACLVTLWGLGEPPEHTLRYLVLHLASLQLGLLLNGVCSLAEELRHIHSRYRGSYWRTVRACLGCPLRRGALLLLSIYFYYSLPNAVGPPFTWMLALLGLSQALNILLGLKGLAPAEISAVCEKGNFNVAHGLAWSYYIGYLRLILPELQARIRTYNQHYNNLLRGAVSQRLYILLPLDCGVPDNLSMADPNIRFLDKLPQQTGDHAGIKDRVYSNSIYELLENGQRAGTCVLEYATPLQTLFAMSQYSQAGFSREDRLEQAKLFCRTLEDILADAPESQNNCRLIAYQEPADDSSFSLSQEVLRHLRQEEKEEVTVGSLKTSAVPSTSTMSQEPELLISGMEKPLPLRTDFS
T2 sequence (Q86WV6 whole entry R71H/G230A/H232R/R293Q): as the sequence (Q86WV6 whole entry) above, with R71H, G230A, H232R, R293Q counted along it
T1 sequence (Q86WV6 whole entry H232R): as the sequence (Q86WV6 whole entry) above, with H232R counted along it

EC50 [1] [µM]	EC50 [2] [µM]	EC50 [3] [µM]	EC50 [4] [µM]	EC50 [5] [µM]	EC50 ([2]; Homo sapiens, THP1-Dual, 20 h) [µM]	EC50 ([5]; Homo sapiens, THP1-Dual, 20 h) [µM]	SMILES
≤ 1	> 10	1 to 10	1 to 10	> 10			CC1(C#N)C(=O)N(Cc2c(F)cccc2Cl)c2cc(C(=O)NCc3c(F)cc(F)cc3F)ccc21 (stereo not drawn) [Example 166, 1-(2-chloro-6-fluorobenzyl)-3-cyano-3-methyl-2-oxo-N-(2,4,6-trifluorobenzyl)indoline-6-carboxamide]
1 to 10		1 to 10	1 to 10		1 to 10	1 to 10	C=CCC1(C)C(=O)N(Cc2cc(C)nn2CC)c2cc(C(=O)NCc3c(F)cc(F)cc3F)ccc21 (stereo not drawn) [Example 175, 3-allyl-1-((1-ethyl-3-methyl-1H-pyrazol-5-yl)methyl)-3-methyl-2-oxo-N-(2,4,6-trifluorobenzyl)indoline-6-carboxamide]
1 to 10		1 to 10	1 to 10		> 10	> 10	CC1(C)C(=O)N(Cc2cc(F)cc(F)c2)c2nc(C(=O)NCc3cc4ccccc4o3)ccc21 [Example 182, N-(benzofuran-2-ylmethyl)-1-(3,5-difluorobenzyl)-3,3-dimethyl-2-oxo-2,3-dihydro-1H-pyrrolo[2,3-b]pyridine-6-carboxamide]
1 to 10		1 to 10	1 to 10		> 10	> 10	Cc1ccc(CNC(=O)c2ccc3c(n2)N(Cc2cc(F)cc(F)c2)C(=O)C3(C)C)o1 [Example 188, 1-(3,5-difluorobenzyl)-3,3-dimethyl-N-((5-methylfuran-2-yl)methyl)-2-oxo-2,3-dihydro-1H-pyrrolo[2,3-b]pyridine-6-carboxamide]
≤ 1		1 to 10	1 to 10		> 10	> 10	CC1(C)C(=O)N(Cc2cc(F)cc(F)c2)c2nc(C(=O)NCc3ccc(F)cc3)ccc21 [Example 189, 1-(3,5-difluorobenzyl)-N-(4-fluorobenzyl)-3,3-dimethyl-2-oxo-2,3-dihydro-1H-pyrrolo[2,3-b]pyridine-6-carboxamide]
1 to 10		1 to 10	1 to 10		> 10	> 10	CC1(C)C(=O)N(Cc2cc(F)cc(F)c2)c2nc(C(=O)NCc3ccccc3)ccc21 [Example 191, N-benzyl-1-(3,5-difluorobenzyl)-3,3-dimethyl-2-oxo-2,3-dihydro-1H-pyrrolo[2,3-b]pyridine-6-carboxamide]
